The term TGI denotes the concentration giving total growth inhibition. Low values mean more potent growth arrest, high ones less potent growth arrest. As a reminder, the GI50 is the concentration giving 50% growth inhibition.

SMILES strings stand for the structures. “And” between values parts separate entries of the source, which are not always exact repeats. Equal values may be shown once.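 96-well plates; 48 h exposure; 5 concentrations. Endpoints by linear interpolation between flanking doses. Not reached: highest tested concentration assigned. GI50: concentration for 50% inhibition of growth. At the TGI there is no net growth.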

Among the data in PubChem BioAssay (NCI) are TGI and GI50 values, retold here.

Some test systems named below: SK-MEL-5 melanoma; EKVX NSCLC; IGROV1 ovarian; 786-0 renal; SNB-75 CNS; U251 CNS; SF-539 CNS; A498 renal; NCI-H460 lung; NCI-H522 lung.
Holding throughout (assay): DTP human tumour cell line panel, 48 h

Consider `NP1(Oc2ccc(F)cc2)=NP(N)(Oc2ccc(F)cc2)=NP(Oc2ccc(F)cc2)(Oc2ccc(F)cc2)=N1` (configuration not stated), for which the TGI was determined as 17.8 µM in the experiment with SK-MEL-5 melanoma; 19 µM in the experiment on EKVX NSCLC; 6.31 µM with IGROV1 ovarian; 22.9 µM in the experiment with 786-0 renal; 14.5 µM in the experiment with SNB-75 CNS; 15.9 µM in the experiment with U251 CNS. Besides, the results for the TGI in the experiment with SF-539 CNS, with A498 renal and in the experiment on NCI-H460 lung were 27.5 µM, 8.71 µM and 13.5 µM, respectively.
In the case of `Cc1nc2ccccc2c(=O)n1/N=C(\N=Nc1cc(Cl)ccc1Cl)c1ccc(N(C)C)cc1`, the TGI in the experiment with SK-MEL-5 melanoma, in the experiment with EKVX NSCLC, in the experiment with IGROV1 ovarian, with 786-0 renal, with U251 CNS and with SF-539 CNS was more than 100 µM in each case. The TGI with NCI-H522 lung is 92.3 µM; with A498 renal it was more than 100 µM; with NCI-H460 lung it was more than 100 µM.
For `C#Cc1c(C)c(/C=C/C(C)=C\C(=O)OC)n(C)c1C`, the total growth inhibition concentration (TGI) in the experiment on EKVX NSCLC, in the experiment on IGROV1 ovarian, in the experiment with 786-0 renal, in the experiment with U251 CNS, in the experiment with SF-539 CNS and in the experiment with NCI-H522 lung was more than 100 µM throughout. In addition, the TGI with A498 renal and in the experiment with NCI-H460 lung was more than 100 µM each time.
Regarding `COc1ccc(/C=C\c2cc(OC)c(OC)c(OC)c2)cc1NC(=O)/C=C/c1cc(OC)c(OC)c(OC)c1`, the GI50 is 2.21 µM with SK-MEL-5 melanoma; more than 100 µM in the experiment with EKVX NSCLC; 9.47 µM in the experiment on IGROV1 ovarian; 5.43 µM with 786-0 renal; 3.82 µM with U251 CNS; 3.95 µM in the experiment on SF-539 CNS. In addition, the GI50 in the experiment on NCI-H522 lung was 2.51 µM; in the experiment on A498 renal, 0.949 µM; with NCI-H460 lung, 3.61 µM. Further, the total growth inhibition concentration (TGI) with SK-MEL-5 melanoma was 6.73 µM; in the experiment on EKVX NSCLC it was more than 100 µM; in the experiment on IGROV1 ovarian it was more than 100 µM; with 786-0 renal, more than 100 µM; in the experiment with U251 CNS, more than 100 µM; in the experiment with SF-539 CNS, more than 100 µM. Further, the TGI with NCI-H522 lung, with A498 renal and with NCI-H460 lung was more than 100 µM each time.
In the case of `CC(C)(C)n1cc(-c2ccnc(NCCCNS(=O)(=O)c3cccc4ccccc34)c2)c(-c2cccc(O)c2)n1`, the GI50 in the experiment with SK-MEL-5 melanoma is 1.51 µM; in the experiment with EKVX NSCLC, 2.13 µM; in the experiment with IGROV1 ovarian, 2.14 µM; with 786-0 renal it was 2.09 µM; with SNB-75 CNS it was 1.88 µM; in the experiment with U251 CNS it was 1.73 µM. The GI50 with SF-539 CNS was 1.83 µM; in the experiment with A498 renal, 1.37 µM; with NCI-H460 lung it was 1.93 µM. The TGI in the experiment with SK-MEL-5 melanoma is 2.85 µM; with EKVX NSCLC it was 6.32 µM; in the experiment on IGROV1 ovarian, 4.68 µM; in the experiment on 786-0 renal it was 5.12 µM; with SNB-75 CNS, 5.48 µM; in the experiment with U251 CNS it was 3.87 µM. Moreover, the concentration for total growth inhibition (TGI) in the experiment on SF-539 CNS worked out at 3.52 µM; in the experiment with A498 renal, 5.1 µM; in the experiment on NCI-H460 lung, 3.8 µM.
In the case of `CC(C)(c1ccc(C=O)o1)c1ccc(C(C)(C)c2ccc(C=O)o2)o1`, the TGI with EKVX NSCLC, in the experiment with IGROV1 ovarian, with 786-0 renal, with U251 CNS, with SF-539 CNS and in the experiment with NCI-H522 lung was more than 100 µM in each case. For the same molecule, the concentration for total growth inhibition (TGI) in the experiment with A498 renal and in the experiment with NCI-H460 lung was more than 100 µM in each case.
On to `COc1ccccc1NC(=O)c1sc2ncn(CCOc3ccccc3)c(=O)c2c1C`, for which the GI50 was 1.15 µM with SK-MEL-5 melanoma; 5.08 µM with EKVX NSCLC; 1.9 µM in the experiment with IGROV1 ovarian; more than 50 µM in the experiment on 786-0 renal; 3.5 µM with U251 CNS; 2.77 µM in the experiment on SF-539 CNS. The figures for the GI50 with NCI-H522 lung and with NCI-H460 lung were 1.8 µM and 2.55 µM, respectively. Further, the TGI is 4.2 µM in the experiment on SK-MEL-5 melanoma; more than 50 µM with EKVX NSCLC; more than 50 µM in the experiment with IGROV1 ovarian; more than 50 µM in the experiment on 786-0 renal; more than 50 µM in the experiment with U251 CNS; 12.2 µM with SF-539 CNS. In addition, the concentration for total growth inhibition (TGI) in the experiment on NCI-H522 lung and in the experiment on NCI-H460 lung was more than 50 µM in each case.
For the molecule `ClC/C=C/CSc1ncnc2nc[nH]c12`, the GI50 in the experiment on SK-MEL-5 melanoma, in the experiment with EKVX NSCLC, with IGROV1 ovarian, in the experiment with 786-0 renal, in the experiment with SNB-75 CNS and in the experiment with U251 CNS was more than 100 µM each time. The GI50 in the experiment on SF-539 CNS, in the experiment with A498 renal and in the experiment on NCI-H460 lung was more than 100 µM throughout. Moreover, the TGI with SK-MEL-5 melanoma, in the experiment on EKVX NSCLC, with IGROV1 ovarian, in the experiment with 786-0 renal, in the experiment on SNB-75 CNS and in the experiment with U251 CNS was more than 100 µM in each case. Also, the TGI in the experiment with SF-539 CNS, with A498 renal and in the experiment on NCI-H460 lung was more than 100 µM each time.
As for `CSCSCC(CO)NC(=O)/C=C/c1c(C)[nH]c(=O)[nH]c1=O` (configuration not stated), the concentration for total growth inhibition (TGI) with SK-MEL-5 melanoma, with EKVX NSCLC, with 786-0 renal, in the experiment with SNB-75 CNS, in the experiment with U251 CNS and with SF-539 CNS was more than 100 µM in each case. Moreover, the concentration for total growth inhibition (TGI) in the experiment on A498 renal and in the experiment on NCI-H460 lung was more than 100 µM in each case.
Turning to `N#Cc1c(N)oc2cc3c(C#N)c(N)oc3cc12`, the total growth inhibition concentration (TGI) in the experiment on SK-MEL-5 melanoma, in the experiment on EKVX NSCLC, in the experiment with IGROV1 ovarian, in the experiment with 786-0 renal, in the experiment with SNB-75 CNS and in the experiment on U251 CNS was more than 100 µM each time. The TGI with SF-539 CNS, in the experiment with NCI-H522 lung and with NCI-H460 lung was more than 100 µM each time.
As to `N#Cc1sc2nc3c(c(-c4ccccc4)c2c1N)CCCC3`, the TGI is more than 100 µM with 786-0 renal; more than 100 µM in the experiment with U251 CNS; 56.2 µM with SF-539 CNS; more than 100 µM with NCI-H522 lung; more than 100 µM with A498 renal; more than 100 µM with NCI-H460 lung.
Take `COc1ccc2c(c1O)[C@@]13CCCC=C1[C@@H](C2)N(C)CC3`: the TGI in the experiment on SK-MEL-5 melanoma, with EKVX NSCLC, in the experiment on IGROV1 ovarian, in the experiment on 786-0 renal, in the experiment with SNB-75 CNS and with U251 CNS was more than 100 µM each time. In addition, the results for the total growth inhibition concentration (TGI) in the experiment on NCI-H522 lung and in the experiment on NCI-H460 lung were 76.2 µM and more than 100 µM, respectively.
With `O=C1c2c(c3c4ccccc4n(CC4CO4)c3c3[nH]c4ccccc4c23)C(=O)N1Cc1ccccc1` (configuration not stated), the total growth inhibition concentration (TGI) in the experiment on IGROV1 ovarian, in the experiment on 786-0 renal, in the experiment on U251 CNS, in the experiment on SF-539 CNS, in the experiment on NCI-H522 lung and in the experiment with A498 renal was more than 100 µM in each case. Also, in the experiment on NCI-H460 lung, the total growth inhibition concentration (TGI) was more than 100 µM.
Consider `COc1cc([C@@H]2c3cc4c(cc3[C@@H](OC3OC5COC(C)OC5C(O)C3O)[C@H]3COC(=O)[C@H]23)OCO4)cc(OC)c1O` (some centres not stated), for which the concentration for total growth inhibition (TGI) in the experiment on SK-MEL-5 melanoma was 47.2 µM and 10.8 µM and 32.5 µM; with EKVX NSCLC it was 149 µM and 500 µM and 183 µM; with IGROV1 ovarian, 67.8 µM and 159 µM and 157 µM; in the experiment on 786-0 renal, 43.3 µM and 28.1 µM and 9.35 µM; in the experiment on A498 renal, 59.9 µM and 12 µM and 55.4 µM; with NCI-H460 lung, 57 µM and 9.96 µM and 25.3 µM.
On to `Cc1ccc2nc(CN(CCN(Cc3nc4ccc(C)cc4[nH]3)Cc3nc4ccc(C)cc4[nH]3)Cc3nc4ccc(C)cc4[nH]3)[nH]c2c1`, for which the GI50 in the experiment on SK-MEL-5 melanoma is 1.69 µM; with EKVX NSCLC, 1.44 µM; in the experiment on IGROV1 ovarian, 1.82 µM; in the experiment on 786-0 renal, 1.75 µM; with SNB-75 CNS, 1.32 µM; in the experiment on U251 CNS, 1.61 µM. In addition, the figures for the GI50 in the experiment with SF-539 CNS and with A498 renal were 1.77 µM and 1.71 µM, respectively. In addition, the TGI turned out to be 3.06 µM with SK-MEL-5 melanoma; 2.75 µM in the experiment on EKVX NSCLC; 3.35 µM in the experiment on IGROV1 ovarian; 3.15 µM with 786-0 renal; 2.6 µM in the experiment with SNB-75 CNS; 2.97 µM with U251 CNS. The TGI with SF-539 CNS came out at 3.16 µM; with A498 renal, 3.14 µM.
As to `C=C(C)[C@@H]1CC[C@]2(C(=O)O)CC[C@]3(C)[C@H](CC[C@@H]4[C@@]5(C)CCC(N)C(C)(C)[C@@H]5CC[C@]43C)[C@@H]12` (some centres not stated), the GI50 with IGROV1 ovarian was 2.41 µM; in the experiment with 786-0 renal it was 1.59 µM; in the experiment on SNB-75 CNS it was 1.39 µM; in the experiment on U251 CNS it was 1.95 µM; with SF-539 CNS, 1.59 µM; with NCI-H460 lung it was 3.12 µM. Moreover, the concentration for total growth inhibition (TGI) in the experiment on IGROV1 ovarian is 6.22 µM; in the experiment with 786-0 renal, 3.07 µM; with SNB-75 CNS, 2.72 µM; in the experiment with U251 CNS, 3.6 µM; in the experiment with SF-539 CNS it was 3.02 µM; in the experiment with NCI-H460 lung, more than 100 µM.
As for `COc1cc2c3c(c4ccc(O)cc4c2cc1OC)[C@@H](O)[C@@H]1CCCN1C3`, the TGI was 0.0206 µM in the experiment with SK-MEL-5 melanoma; 0.00625 µM with EKVX NSCLC; 0.00965 µM in the experiment with IGROV1 ovarian; 0.0257 µM with 786-0 renal; 0.00241 µM with U251 CNS; less than 0.0114 µM in the experiment on SF-539 CNS. Further, the TGI in the experiment on NCI-H522 lung amounted to 0.00781 µM; in the experiment on A498 renal it was 0.00625 µM; in the experiment on NCI-H460 lung it was 0.0155 µM.
In the case of `CCOC(=O)C(=O)CC(=O)C(Br)C(Br)c1ccc(Cl)cc1` (configuration not stated), the total growth inhibition concentration (TGI) is more than 100 µM with SK-MEL-5 melanoma; more than 100 µM in the experiment on EKVX NSCLC; more than 100 µM with IGROV1 ovarian; 34 µM with 786-0 renal; more than 100 µM in the experiment with SNB-75 CNS; 45.7 µM in the experiment with NCI-H522 lung. Also, in the experiment with NCI-H460 lung, the TGI is more than 100 µM.
